# Measured values as given in patent US20260242390A1, “TOTAL SYNTHESES OF PORTIMINE A AND ANALOGUES THEREOF AS SMALL MOLECULE MODULATORS OF NMD3” (priority 2023, published 2026).
# pIC50: −log10 of the molar value.
# Legend:
# 786-O = assay: Broad cell line profiling, 786-O; assay type: cell-based; details: Homo sapiens, 786-0, Renal Adenocarcinoma, read-out: PA IC50
# From the text: (§1) • A panel of human and mouse cancer cell types used to assess the breadth of PA activity, including multiple therapy resistant metastatic mesenchymal tumor cell lines and primary glioblastoma patient-derived metastatic stem/tumor initiating cell populations.
# GBM-F = assay: Broad cell line profiling, GBM-F; assay type: cell-based; details: Homo sapiens, Glioblastoma Cancer Stem Cell, read-out: PA IC50
# From the text: as §1
# MC38 = assay: Broad cell line profiling, MC38; assay type: cell-based; details: MC-38; MC38, Mouse Colon Carcinoma; read-out: PA IC50
# From the text: as §1
# 4T1 = assay: Broad cell line profiling, 4T1; assay type: cell-based; details: 4T1, Mouse Mammary Carcinoma; read-out: PA IC50
# From the text: as §1
# HT-1080 fibrosarcoma = assay: HT-1080 Tumor Xenograft Model; assay type: in vivo, mouse; details: 0.3 or 1.0 mg/kg, i.p.
# From the text: FIG. 9. […] (A) Systemic Portimine A in MC38 Syngeneic Tumor Xenograft Model; and (B) Systemic Portimine A in HT-1080 Tumor Xenograft Model.
# Preliminary cell-based target engagement studies, based on compound washout, indicates PA is fast acting with <1 hr of exposure resulting in minimal loss of potency. Cmax-driven pharmacology and facile synthetic access to material enabled the evaluation of PA in both a syngeneic (MC38 colon carcinoma) and a human metastatic mesenchymal (HT-1080 fibrosarcoma) mouse tumor xenograft model. […] Metabolic stability represents an opportunity for an additional IP position.
# • 1) Portimine A and its functional analogs show stereo-selective acute toxicity in cancer cells (FIG. 1). […] (B) Structure of portimine related analogs: phenyl-portimine A (Ph-PA, 36) and epi-portimine A (ePA, 38). Structure of fully functionalized portimine A-based epimeric probe pair: portimine A-diazirine-alkyne (PA-DA, 35-2) and epi-portimine A-diazirine-alkyne (ePA-DA, 35-1). (C) Cell viability analysis of portimine A and analogs. Jurkat cells were treated with increasing concentrations of portimine A and analogs for 24 hours. All presented data as mean of biological replicated experiments (n=3). […] Jurkat cells were treated with portimine A or analogs for 12 hours at 10 nM. […]
smiles,measurement,setting,value
"C=CC1=C[C@@H]2[C@@H]3O[C@]4(CC[C@H](O4)C(C)C[C@@H](O)C3=O)CC(O)C3=NCC[C@@]32CC1 (some centres unmarked) [PA, portimine A]",pIC50,786-O,8.74
same,pIC50,GBM-F,8.59
same,pIC50,MC38,9.26
same,pIC50,4T1,9.20
same,"anti-tumor activity, HT-1080 fibrosarcoma xenograft model",HT-1080 fibrosarcoma,Potent anti-tumor activity
